Laboratory results reported in patent US8952024B2, “Herbicidal pyrimidone derivatives” (E I du Pont de Nemours and Company, priority 2009, dated 2015).

Tests used:
Experiment in all cases: Test D pre-/postemergence plant response
Format in all cases: in vivo
[1] = test system: Italian ryegrass (Lolium multiflorum); conditions: Postemergence
Method in brief: (§1)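 Scores (0 no effect, 100 complete control) reflect visual assessment against untreated plants after 14 to 21 days. Treatments were pre- and postemergence sprays in solvent with surfactant.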

[2] = test system: bermudagrass (Cynodon dactylon); conditions: Postemergence
Method in brief: as §1

[3] = test system: groundsel (common groundsel, Senecio vulgaris); conditions: Postemergence
Method in brief: as §1

[4] = test system: guineagrass (Panicum maximum); conditions: Postemergence
Method in brief: as §1

[5] = test system: spanishneedles (Bidens bipinnata); conditions: Postemergence
Method in brief: as §1

[6] = test system: itchgrass (Rottboellia cochinchinensis); conditions: Postemergence
Method in brief: as §1

[7] = test system: sowthistle (common sowthistle, Sonchus oleraceous); conditions: Postemergence
Method in brief: as §1

[8] = test system: mallow (common mallow, Malva sylvestris); conditions: Postemergence
Method in brief: as §1

[9] = test system: prickly sida (Sida spinosa); conditions: Postemergence
Method in brief: as §1

[10] = test system: barnyardgrass (Echinochloa crus-galli); conditions: Postemergence
Method in brief: as §1

[11] = test system: green foxtail (Setaria viridis); conditions: Postemergence
Method in brief: as §1

[12] = test system: nutsedge (purple nutsedge, Cyperus rotundus); conditions: Postemergence
Method in brief: as §1

[13] = test system: johnsongrass (Sorghum halepense); conditions: Postemergence
Method in brief: as §1

[14] = test system: field bindweed (Convolvulus arvensis); conditions: Postemergence
Method in brief: as §1

[15] = test system: naked crabgrass (Digitaria nuda); conditions: Postemergence, scale 0 to 100 (0 no effect, 100 complete control)
Method in brief: as §1

[16] = 125 g ai/ha, scale 0 to 100 (0 no effect, 100 complete control)
[17] = 250 g ai/ha, scale 0 to 100 (0 no effect, 100 complete control)
[18] = 62 g ai/ha, scale 0 to 100 (0 no effect, 100 complete control)
[19] = 31 g ai/ha, scale 0 to 100 (0 no effect, 100 complete control)

CCCCn1c(-c2ccccc2)ncc(C(=O)C2=C(O)C3CCC(C3)C2=O)c1=O (stereo not drawn) [Compound 240]
40: Plant response rating, Guineagrass ([4]; 31 g ai/ha, scale 0 to 100) | Plant response rating, Mallow [8, 18]
35: Plant response rating, Ryegrass, Italian [1, 16] | Plant response rating, Ryegrass, Italian [1, 17] | Plant response rating, Ryegrass, Italian [1, 18] | Plant response rating, Prickly Sida ([9]; 31 g ai/ha, scale 0 to 100)
10: Plant response rating, Mallow ([8]; 31 g ai/ha, scale 0 to 100)
80: Plant response rating, Guineagrass [4, 16] | Plant response rating, Guineagrass [4, 17] | Plant response rating, Itchgrass [6, 16] | Plant response rating, Itchgrass [6, 17] | Plant response rating, Barnyardgrass ([10]; 31 g ai/ha, scale 0 to 100)
90: Plant response rating, Johnsongrass [13, 18]
20: Plant response rating, Nutsedge, Purple [12, 17]
70: Plant response rating, Johnsongrass ([13]; 31 g ai/ha, scale 0 to 100) | Plant response rating, Field Bindweed [14, 16] | Plant response rating, Field Bindweed [14, 17] | Plant response rating, Field Bindweed [14, 18]
0: Plant response rating, Ryegrass, Italian ([1]; 31 g ai/ha, scale 0 to 100) | Plant response rating, Nutsedge, Purple ([12]; 31 g ai/ha, scale 0 to 100)
98: Plant response rating, Sowthistle ([7]; 31 g ai/ha, scale 0 to 100) | Plant response rating, Sowthistle [7, 16] | Plant response rating, Sowthistle [7, 17] | Plant response rating, Sowthistle [7, 18] | Plant response rating, Foxtail, Green [11, 16] | Plant response rating, Foxtail, Green [11, 17] | Plant response rating, Foxtail, Green [11, 18]
100: Plant response rating, Groundsel ([3]; 31 g ai/ha, scale 0 to 100) | Plant response rating, Groundsel [3, 16] | Plant response rating, Groundsel [3, 17] | Plant response rating, Groundsel [3, 18]
75: Plant response rating, Spanishneedles [5, 16] | Plant response rating, Spanishneedles [5, 17] | Plant response rating, Itchgrass ([6]; 31 g ai/ha, scale 0 to 100) | Plant response rating, Itchgrass [6, 18] | Plant response rating, Prickly Sida [9, 16] | Plant response rating, Prickly Sida [9, 17]
5: Plant response rating, Nutsedge, Purple [12, 16] | Plant response rating, Nutsedge, Purple [12, 18]
60: Plant response rating, Mallow [8, 16] | Plant response rating, Mallow [8, 17] | Plant response rating, Field Bindweed ([14]; 31 g ai/ha, scale 0 to 100)
95: Plant response rating, Bermudagrass [2, 16] | Plant response rating, Bermudagrass [2, 17] | Plant response rating, Bermudagrass [2, 18] | Plant response rating, Barnyardgrass [10, 16] | Plant response rating, Barnyardgrass [10, 17] | Plant response rating, Barnyardgrass [10, 18] | Plant response rating, Foxtail, Green ([11]; 31 g ai/ha, scale 0 to 100) | Plant response rating, Johnsongrass [13, 16] | Plant response rating, Johnsongrass [13, 17]
85: Plant response rating, Bermudagrass ([2]; 31 g ai/ha, scale 0 to 100)
65: Plant response rating, Guineagrass [4, 18] | Plant response rating, Spanishneedles ([5]; 31 g ai/ha, scale 0 to 100) | Plant response rating, Spanishneedles [5, 18] | Plant response rating, Prickly Sida [9, 18]

CCCn1c(-c2ccccc2)ncc(C(=O)C2=C(O)C3CCC(C3)C2=O)c1=O (stereo not drawn) [Compound 226]
65: Plant response rating, Mallow [8, 17] | Plant response rating, Prickly Sida [9, 18] | Plant response rating, Crabgrass, Naked ([15]; 62 g ai/ha)
95: Plant response rating, Bermudagrass [2, 16] | Plant response rating, Bermudagrass [2, 18] | Plant response rating, Groundsel [3, 16] | Plant response rating, Barnyardgrass [10, 16] | Plant response rating, Barnyardgrass [10, 17]
15: Plant response rating, Ryegrass, Italian [1, 17]
5: Plant response rating, Nutsedge, Purple [12, 17]
50: Plant response rating, Mallow [8, 16] | Plant response rating, Mallow [8, 18]
70: Plant response rating, Itchgrass [6, 16] | Plant response rating, Itchgrass [6, 18] | Plant response rating, Prickly Sida [9, 16] | Plant response rating, Foxtail, Green [11, 18] | Plant response rating, Crabgrass, Naked ([15]; 125 g ai/ha) | Plant response rating, Field Bindweed [14, 16] | Plant response rating, Field Bindweed [14, 18]
85: Plant response rating, Barnyardgrass [10, 19] | Plant response rating, Barnyardgrass [10, 18]
98: Plant response rating, Bermudagrass [2, 17] | Plant response rating, Sowthistle [7, 16] | Plant response rating, Sowthistle [7, 17] | Plant response rating, Sowthistle [7, 18] | Plant response rating, Foxtail, Green [11, 17]
100: Plant response rating, Groundsel [3, 17]
80: Plant response rating, Guineagrass [4, 16] | Plant response rating, Guineagrass [4, 17] | Plant response rating, Guineagrass [4, 18] | Plant response rating, Spanishneedles [5, 17] | Plant response rating, Foxtail, Green [11, 16] | Plant response rating, Johnsongrass [13, 16] | Plant response rating, Johnsongrass [13, 18] | Plant response rating, Field Bindweed [14, 17]
90: Plant response rating, Bermudagrass [2, 19] | Plant response rating, Groundsel [3, 18] | Plant response rating, Itchgrass [6, 17] | Plant response rating, Johnsongrass [13, 17]
0: Plant response rating, Ryegrass, Italian [1, 16] | Plant response rating, Ryegrass, Italian [1, 18] | Plant response rating, Nutsedge, Purple [12, 16] | Plant response rating, Nutsedge, Purple [12, 18]
75: Plant response rating, Spanishneedles [5, 16] | Plant response rating, Spanishneedles [5, 18] | Plant response rating, Prickly Sida [9, 17] | Plant response rating, Crabgrass, Naked ([15]; 250 g ai/ha)

COCCCn1c(-c2cc(F)cc(F)c2)ncc(C(=O)C2=C(O)C3CCC(C3)C2=O)c1=O (stereo not drawn) [Compound 244]
0: Plant response rating, Nutsedge, Purple ([12]; 31 g ai/ha, scale 0 to 100) | Plant response rating, Nutsedge, Purple [12, 18]
90: Plant response rating, Barnyardgrass [10, 17] | Plant response rating, Foxtail, Green [11, 18]
50: Plant response rating, Mallow ([8]; 31 g ai/ha, scale 0 to 100) | Plant response rating, Mallow [8, 18]
75: Plant response rating, Guineagrass [4, 16] | Plant response rating, Guineagrass [4, 17] | Plant response rating, Guineagrass [4, 18] | Plant response rating, Spanishneedles [5, 16] | Plant response rating, Spanishneedles [5, 17] | Plant response rating, Itchgrass [6, 16] | Plant response rating, Itchgrass [6, 17] | Plant response rating, Sowthistle ([7]; 31 g ai/ha, scale 0 to 100) | Plant response rating, Foxtail, Green ([11]; 31 g ai/ha, scale 0 to 100) | Plant response rating, Johnsongrass [13, 16] | Plant response rating, Johnsongrass [13, 17]
20: Plant response rating, Field Bindweed ([14]; 31 g ai/ha, scale 0 to 100)
5: Plant response rating, Ryegrass, Italian ([1]; 31 g ai/ha, scale 0 to 100)
85: Plant response rating, Barnyardgrass [10, 16]
95: Plant response rating, Bermudagrass [2, 16] | Plant response rating, Bermudagrass [2, 17] | Plant response rating, Sowthistle [7, 18] | Plant response rating, Foxtail, Green [11, 16]
15: Plant response rating, Ryegrass, Italian [1, 18]
60: Plant response rating, Ryegrass, Italian [1, 17] | Plant response rating, Itchgrass ([6]; 31 g ai/ha, scale 0 to 100) | Plant response rating, Mallow [8, 16] | Plant response rating, Prickly Sida [9, 17]
40: Plant response rating, Prickly Sida [9, 16]
65: Plant response rating, Spanishneedles ([5]; 31 g ai/ha, scale 0 to 100) | Plant response rating, Spanishneedles [5, 18] | Plant response rating, Field Bindweed [14, 16]
80: Plant response rating, Bermudagrass ([2]; 31 g ai/ha, scale 0 to 100) | Plant response rating, Bermudagrass [2, 18] | Plant response rating, Barnyardgrass ([10]; 31 g ai/ha, scale 0 to 100) | Plant response rating, Barnyardgrass [10, 18]
35: Plant response rating, Ryegrass, Italian [1, 16] | Plant response rating, Prickly Sida [9, 18] | Plant response rating, Nutsedge, Purple [12, 17] | Plant response rating, Field Bindweed [14, 18]
70: Plant response rating, Guineagrass ([4]; 31 g ai/ha, scale 0 to 100) | Plant response rating, Itchgrass [6, 18] | Plant response rating, Mallow [8, 17] | Plant response rating, Johnsongrass ([13]; 31 g ai/ha, scale 0 to 100) | Plant response rating, Johnsongrass [13, 18] | Plant response rating, Field Bindweed [14, 17]
100: Plant response rating, Groundsel ([3]; 31 g ai/ha, scale 0 to 100) | Plant response rating, Groundsel [3, 16] | Plant response rating, Groundsel [3, 17] | Plant response rating, Groundsel [3, 18] | Plant response rating, Sowthistle [7, 16] | Plant response rating, Sowthistle [7, 17] | Plant response rating, Foxtail, Green [11, 17]
10: Plant response rating, Nutsedge, Purple [12, 16]
25: Plant response rating, Prickly Sida ([9]; 31 g ai/ha, scale 0 to 100)
